Assay results reported in the supplement of paper PMC10307832.

How the values were obtained:
Test in all cases: relative viability (nuclei count vs DMSO), 5 days (fraction); higher = more cells survive
AGI-6780 + OSI-027 = compound: O=C(Nc1cccc(C(F)(F)F)c1)Nc1cc(S(=O)(=O)NC2CC2)ccc1-c1ccsc1 [AGI-6780] + COc1cccc2cc(-c3nc([C@H]4CC[C@H](C(=O)O)CC4)n4ncnc(N)c34)[nH]c12 [OSI-027] (partner 0.5 µM)
Outline: (§1)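 One day after seeding in 1536-well plates, lung cancer cell lines were dosed by pin tool. Dosing was either single-drug or a fixed anchor-drug dose plus five library-drug doses (not always all listed) in √10 steps. After 5 days, nuclei were stained in one fix-and-stain step and counted on 4× images, and relative viability is the nuclei count of treated wells over that of vehicle wells, given as the median of duplicate plates.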

AGI-6780 + Luminespib = compound: O=C(Nc1cccc(C(F)(F)F)c1)Nc1cc(S(=O)(=O)NC2CC2)ccc1-c1ccsc1 [AGI-6780] + CCNC(=O)c1noc(-c2cc(C(C)C)c(O)cc2O)c1-c1ccc(CN2CCOCC2)cc1 [Luminespib] (partner 0.01 µM)
Outline: as §1

AGI-6780 + Lapatinib = compound: O=C(Nc1cccc(C(F)(F)F)c1)Nc1cc(S(=O)(=O)NC2CC2)ccc1-c1ccsc1 [AGI-6780] + CS(=O)(=O)CCNCc1ccc(-c2ccc3ncnc(Nc4ccc(OCc5cccc(F)c5)c(Cl)c4)c3c2)o1 [Lapatinib] (partner 2 µM)
Outline: as §1

AGI-6780 + Linsitinib = compound: O=C(Nc1cccc(C(F)(F)F)c1)Nc1cc(S(=O)(=O)NC2CC2)ccc1-c1ccsc1 [AGI-6780] + C[C@]1(O)C[C@@H](c2nc(-c3ccc4ccc(-c5ccccc5)nc4c3)c3c(N)nccn32)C1 [Linsitinib] (partner 1 µM)
Outline: as §1

| Cell Line | relative viability (AGI-6780 + OSI-027; first compound 0.08 µM) | relative viability (AGI-6780 + OSI-027; first compound 0.253 µM) | relative viability (AGI-6780 + OSI-027; first compound 0.8 µM) | relative viability (AGI-6780 + OSI-027; first compound 2.53 µM) | relative viability (AGI-6780 + OSI-027; first compound 8 µM) | relative viability (AGI-6780 + Luminespib; first compound 0.08 µM) | relative viability (AGI-6780 + Luminespib; first compound 0.253 µM) | relative viability (AGI-6780 + Luminespib; first compound 0.8 µM) | relative viability (AGI-6780 + Luminespib; first compound 2.53 µM) | relative viability (AGI-6780 + Luminespib; first compound 8 µM) | relative viability (AGI-6780 + Lapatinib; first compound 0.08 µM) | relative viability (AGI-6780 + Lapatinib; first compound 0.253 µM) | relative viability (AGI-6780 + Lapatinib; first compound 0.8 µM) | relative viability (AGI-6780 + Lapatinib; first compound 2.53 µM) | relative viability (AGI-6780 + Lapatinib; first compound 8 µM) | relative viability (AGI-6780 + Linsitinib; first compound 0.08 µM) | relative viability (AGI-6780 + Linsitinib; first compound 0.253 µM) | relative viability (AGI-6780 + Linsitinib; first compound 0.8 µM) | relative viability (AGI-6780 + Linsitinib; first compound 2.53 µM) | relative viability (AGI-6780 + Linsitinib; first compound 8 µM) |
| --- | --- | --- | --- | --- | --- | --- | --- | --- | --- | --- | --- | --- | --- | --- | --- | --- | --- | --- | --- | --- |
| LC-2-ad | 0.829 | 0.875 | 0.874 | 0.638 | 0.794 | 1 | 0.915 | 1.11 | 1.05 | 0.921 | 0.943 | 1.04 | 0.979 | 1.02 | 0.958 | 0.824 | 0.9 | 0.878 | 0.882 | 0.791 |
| NCI-H2023 | 0.434 | 0.455 | 0.447 | 0.301 | 0.337 | 0.877 | 0.688 | 0.602 | 0.553 | 0.686 | 0.902 | 0.992 | 1 | 0.556 | 0.906 | 0.711 | 0.677 | 0.697 | 0.648 | 0.698 |
| NCI-H2228 | 0.617 | 0.589 | 0.488 | 0.367 | 0.685 | 0.128 | 0.15 | 0.148 | 0.114 | 0.113 | 1.2 | 1.05 | 0.825 | 0.771 | 1.27 | 0.8 | 1.07 | 0.604 | 0.754 | 0.629 |
| RERF-LC-KJ | 0.579 | 0.719 | 0.614 | 0.465 | 0.454 | 1.25 | 1.17 | 1.33 | 1.16 | 1.17 | 0.828 | 0.923 | 0.788 | 0.675 | 0.859 | 0.863 | 1 | 0.837 | 0.822 | 0.845 |
| NCI-H358 | 0.846 | 0.753 | 0.778 | 0.467 | 0.79 | 0.37 | 0.255 | 0.424 | 0.204 | 0.439 | 0.517 | 0.6 | 0.473 | 0.375 | 0.417 | 0.792 | 0.721 | 0.752 | 0.551 | 0.663 |
| SK-MES-1 | 0.635 | 0.662 | 0.561 | 0.448 | 0.509 | 0.716 | 0.714 | 0.798 | 0.677 | 0.801 | 0.482 | 0.524 | 0.441 | 0.407 | 0.427 | 1.08 | 1.06 | 0.92 | 0.984 | 1.09 |
| NCI-H1437 | 0.851 | 0.86 | 0.859 | 0.898 | 0.927 | 1.21 | 1.06 | 1.17 | 1.22 | 1.1 | 0.825 | 0.834 | 0.863 | 0.838 | 0.941 | 1.11 | 1.01 | 1.07 | 1.03 | 0.983 |
| HOP-62 | 0.886 | 0.906 | 0.884 | 0.715 | 1.01 | 0.963 | 0.983 | 0.925 | 1 | 0.95 | 0.974 | 0.888 | 0.965 | 1.06 | 1.06 | 0.945 | 1.3 | 1.08 | 1.04 | 0.826 |
| HCC-15 | 0.743 | 0.763 | 0.783 | 0.458 | 0.725 | 0.407 | 0.247 | 0.274 | 0.38 | 0.3 | 0.896 | 0.824 | 0.971 | 0.83 | 0.856 | 0.897 | 0.867 | 0.941 | 0.777 | 0.821 |
| HCC-44 | 0.628 | 0.719 | 0.477 | 0.47 | 0.594 | 1.18 | 1.01 | 1.16 | 1.09 | 0.982 | 0.989 | 1 | 1.03 | 0.96 | 1.04 | 0.714 | 0.73 | 0.693 | 0.622 | 0.597 |
| NCI-H2405 | 0.671 | 0.651 | 0.525 | 0.549 | 0.596 | 0.686 | 0.718 | 0.5 | 0.515 | 0.65 | 1.05 | 1.08 | 0.938 | – | 1.1 | 0.931 | 0.933 | 0.687 | – | 0.845 |
| NCI-H1993 | 0.367 | 0.614 | 0.46 | 0.588 | 0.554 | 0.747 | 0.913 | 0.705 | 0.642 | 0.857 | 0.91 | 0.86 | 0.804 | 0.749 | 0.933 | 0.808 | 0.801 | 0.765 | 0.703 | 0.682 |
| NCI-H596 | 0.803 | 0.841 | 0.643 | – | 0.647 | 1 | 0.995 | 0.982 | – | 1.09 | 0.841 | 1.13 | 1.05 | 0.886 | 1.08 | 1.24 | 1.09 | 0.961 | 0.931 | 1.12 |
| ABC-1 | 0.469 | 0.524 | 0.688 | 0.55 | 0.595 | 0.58 | 0.447 | 0.63 | 0.821 | 0.408 | 1.26 | 1.2 | 1.27 | 1.16 | 1.27 | 0.756 | 0.501 | 0.835 | 0.736 | 0.601 |
| A-427 | 0.477 | 0.458 | 0.507 | 0.384 | 0.509 | 0.943 | 0.717 | 0.882 | 0.802 | 0.97 | 1.09 | 0.997 | 1.01 | 0.945 | 0.929 | 1.09 | 1.07 | 1.1 | 1.03 | 1.12 |
| LOU-NH91 | 0.739 | 0.705 | 0.676 | 0.621 | 0.709 | 0.411 | 0.337 | 0.436 | 0.328 | 0.305 | 0.773 | 0.836 | 0.78 | 0.587 | 0.737 | 0.99 | 0.921 | 0.857 | 0.901 | 0.93 |
